Like-named read-outs stand apart in the source and are kept apart here.
Assay: Pharmacokinetic study of LPNF-CBD formulations in freely moving rat model
Type: in vivo
Conditions: CBD 15 mg/kg; for half-life: read-out: Elimination half-life (converted)
Procedure: For pharmacokinetic analysis of LPNF-CBD powders, male Wistar rats were tested in […] groups: a control group received LPNF-CBD prepared as in EXAMPLE 2 (N=5) with CBD concentration 2 mg/mL, administered by oral gavage; experimental groups received LPNF-CBD Polypore or Neusilin US2 powders dispersed in water (N=4 and N=5, respectively) with LPNF-CBD concentration of 20 mg/ml, administered by oral gavage; control groups received CBD in propylene glycol:ethanol:water (4.5:4.5:1 v/v) with CBD concentration of 3 mg/mL, administered by oral gavage or intravenously (N=5 and N=3, respectively). In all groups, the administered CBD dose was 15 mg/kg. For pharmacokinetic (PK) studies, blood samples (0.35 mL) were taken at 0, 0.3 h, 0.6 h, 1 h, 1.5 h, 2 h, 3 h, 4 h and 6 h time points. Plasma was separated by centrifugation and stored frozen until LCMS analysis.
PK study was conducted in the freely moving rat model (in-vivo) in five groups of animals receiving: (1) CBD in propylene glycol:ethanol:water solution; (2) LPNF-CBD, (3) LPNF-CBD Polypore and (4) LPNF-CBD Neusilin powders dispersed in water; all administered by oral gavage; and (5) CBD in propylene glycol:ethanol:water solution administered IV.

[1] = male, Wistar, in vivo, oral gavage

For `C=C(C)[C@@H]1CCC(C)=C[C@H]1c1c(O)cc(CCCCC)cc1O` [CBD, Cannabidiol], the Liner terminal slope (IV) was 0.2 h⁻¹, the half-life (male, Wistar, in vivo, IV) was 4.1 h and the AUC [1] was 0.158 µg·h/mL. It also gave a half-life [1] of 3.2 h and a Liner terminal slope (oral gavage) of 0.2 h⁻¹.

From patent US20250352477A1, “FORMULATIONS AND ORAL DOSAGE FORMS OF LIPOPHILIC AGENTS” (CANNBIOREX PHARMA LTD, priority 2022, published 2025)
